Data: the supplement of paper PMC10883282

Columns and labels:
Assay in all cases: relative viability vs DMSO control (72 h) (fraction); higher = more viable cells
[1] = test system: MES-SA
Summary of the method: (§1)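 After seeding at densities set for 80–90% confluence in 384-well plates, sarcoma cell lines waited 24 h before 2.5 µl of serially diluted compound was added. Source plates held 10 mM down to 0.0002 mM. Plates were incubated 72 h at 37 °C with 5% CO2, with 0.1% DMSO vehicle and a 5 µM positive control, and relative viability was taken from ATPLite as percent growth averaged over up to triplicate wells, with 1 set as full and 0 as none.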

[2] = test system: VA-ES-BJ
Summary of the method: as §1

[3] = test system: SK-ES-1
Summary of the method: as §1

[4] = test system: A204
Summary of the method: as §1

[5] = test system: SW982
Summary of the method: as §1

O=c1sn(-c2cccc3ccccc23)c(=O)n1Cc1ccccc1 [Tideglusib]
relative viability
Details	[1]	[2]	[3]	[4]	[5]
0.00017 µM	0.972	1.1	1.03	1.09	1.07
0.00051 µM	0.971	1.12	1.06	1.131	1.09
0.00152 µM	0.946	1.08	1.09	1.12	1.08
0.00457 µM	0.968	1.1	1.12	1.12	1.11
0.01372 µM	0.962	1.08	1.083	1.14	1.11
0.04115 µM	0.963	1.08	1.08	1.11	1.11
0.1235 µM	0.959	1.08	1.05	1.12	1.1
0.3704 µM	0.95	1.04	1.03	1.12	1.09
1.111 µM	0.94	1.07	1.03	1.134	1.068
3.333 µM	0.924	1.04	0.977	1.1	1.08
10 µM	0.878	1.02	0.923	1.07	1.05

O=C1NC(=O)[C@@H](c2cn3c4c(cccc24)CCC3)[C@@H]1c1c[nH]c2ccccc12 [Tivantinib]
relative viability
Details	[1]	[2]	[3]	[4]	[5]
0.00017 µM	0.9028	1.01	1.01	1.08	1.05
0.00051 µM	0.908	1.03	1.04	1.05	1.04
0.00152 µM	0.92	1.02	1	1.09	1.04
0.00457 µM	0.919	1.03	1.08	1.11	1.07
0.01372 µM	0.914	1.01	1.03	1.1	1.06
0.04115 µM	0.888	1.01	1.02	1.07	1.04
0.1235 µM	0.919	0.991	0.9862	1.06	1.03
0.3704 µM	0.406	0.76	0.645	1.05	0.766
1.111 µM	0.285	0.464	0.0656	0.455	0.378
3.333 µM	0.205	0.439	0.0193	0.439	0.272
10 µM	0.1134	0.397	0.0196	0.331	0.2611

Cc1[nH]c(/C=C2\C(=O)Nc3ccc(F)cc32)c(C)c1C(=O)NCCN1CCCC1 [Toceranib]
relative viability
Details	[1]	[2]	[3]	[4]	[5]
68 pM	0.932	1.07	1.01	1.05	0.951
0.000203 µM	0.9214	1.05	1.02	1.01	0.984
0.0006 µM	0.926	1.04	1	1.06	0.962
0.0018 µM	0.899	1.03	0.995	1.08	1.01
0.0055 µM	0.915	1.04	0.996	1.03	0.985
0.0165 µM	0.919	1.01	0.98	0.938	1
0.0494 µM	0.9	0.987	0.972	0.633	0.929
0.1481 µM	0.919	1	0.913	0.442	0.993
0.444 µM	0.884	0.961	0.802	0.394	0.948
1.333 µM	0.751	0.859	0.43	0.355	0.571
4 µM	0.44	0.675	0.165	0.327	0.31

CC(C)Oc1ccc(-c2nn([C@@H](C)c3oc4ccc(F)cc4c(=O)c3-c3cccc(F)c3)c3ncnc(N)c23)cc1F [Umbralisib]
relative viability
Details	[1]	[2]	[3]	[4]	[5]
0.00017 µM	0.946	1.07	1.07	1.08	1.03
0.00051 µM	0.928	1.07	1.07	1.11	1.078
0.00152 µM	0.94	1.11	1.05	1.12	1.07
0.00457 µM	0.981	1.08	1.07	1.12	1.06
0.01372 µM	0.957	1.08	1.06	1.08	1.05
0.04115 µM	0.9436	1.05	1.09	1.09	1.067
0.1235 µM	0.943	1.07	1.04	1.08	1.07
0.3704 µM	0.945	1.05	1.04	1.07	1.079
1.111 µM	0.937	1.05	1.04	0.986	1.063
3.333 µM	0.922	1.05	1.08	1.02	1.08
10 µM	0.747	1.1	1.02	0.9	1.12

CC[C@@H]1CN(C(=O)NCC(F)(F)F)C[C@@H]1c1cnc2cnc3[nH]ccc3n12 [Upadacitinib]
relative viability
Details	[1]	[2]	[3]	[4]	[5]
0.00017 µM	0.941	1.1	1.02	1.05	1.01
0.00051 µM	0.949	1.05	1.01	1.1	1.022
0.00152 µM	0.947	1.07	1.05	1.1	1.05
0.00457 µM	0.939	1.04	1.02	1.07	1.05
0.01372 µM	0.932	1.05	1.02	1.05	1.052
0.04115 µM	0.92	1.06	1	1.05	1.04
0.1235 µM	0.923	1.04	1.058	1.07	1.06
0.3704 µM	0.936	1.037	1.01	1.03	1.043
1.111 µM	0.885	1	0.982	1.03	1
3.333 µM	0.873	1.03	0.986	0.945	0.969
10 µM	0.812	0.995	0.907	0.832	0.779

Clc1ccc(Nc2nnc(Cc3ccncc3)c3ccccc23)cc1 [Vatalanib]
relative viability
Details	[1]	[2]	[3]	[4]	[5]
0.00017 µM	0.897	1.01	0.978	1.05	1.03
0.00051 µM	0.905	1.01	0.987	1.09	1.02
0.00152 µM	0.908	1	0.968	1.04	1.04
0.00457 µM	0.902	1.04	1.04	1.03	1.05
0.01372 µM	0.925	1.02	1.03	1.04	1.06
0.04115 µM	0.92	1.02	1.01	1.02	1.0899
0.1235 µM	0.922	1.03	0.995	0.972	1.065
0.3704 µM	0.938	1.05	1.04	0.904	1.04
1.111 µM	0.937	1.02	1.05	0.7796	1.03
3.333 µM	0.919	1.07	1.02	0.483	1.053
10 µM	0.854	1.05	0.91	0.365	1.03
